Test results from DBAASP.
Converted amounts (≈) assume the structure as drawn.

Assays:
Assay in all cases: ≥ marks a high value that may be exact or a test limit, other limits are often not marked, values filed in µg/mL are converted to µM
[1] = system: Bacillus subtilis KCTC 1918
[2] = system: Staphylococcus aureus KCTC 1621
[3] = system: Candida albicans TIMM 1768
[4] = system: Aspergillus fumigatus KCTC 4165
[5] = system: Streptococcus pyogenes KCTC 3096
[6] = system: Escherichia coli KCTC 1682
[7] = system: Pseudomonas aeruginosa KCTC 1637
[8] = system: Salmonella typhimurium KCTC 1926

- MIC [1]: 3.12 µM (≈ 6.7 µg/mL)
- MIC [2]: 1.56 µM (≈ 3.35 µg/mL)
- MIC [3]: 6.25 µM (≈ 13.4 µg/mL)
- MIC [4]: 12.5 µM (≈ 26.8 µg/mL)
- MIC [5]: 3.12 µM (≈ 6.7 µg/mL)
- MIC [6]: 3.12 µM (≈ 6.7 µg/mL)
- MIC [7]: 0.78 µM (≈ 1.67 µg/mL)
- MIC [8]: 1.56 µM (≈ 3.35 µg/mL)
Compound: CC[C@H](C)[C@H](NC(=O)[C@H](CCCCN)NC(=O)[C@H](CCCCN)NC(=O)[C@H](CC(C)C)NC(=O)[C@H](CCCCN)NC(=O)[C@H](CCCCN)NC(=O)CN)C(=O)NCC(=O)N[C@@H](CCC(N)=O)C(=O)N[C@@H](CCCCN)C(=O)N[C@H](C(=O)N[C@@H](CCCCN)C(=O)N[C@@H](CC(N)=O)C(=O)N[C@@H](Cc1ccccc1)C(=O)N[C@@H](Cc1ccccc1)C(=O)N[C@@H](CCC(N)=O)C(=O)N[C@@H](CCCCN)C(=O)N[C@@H](CC(C)C)C(=O)O)[C@@H](C)CC [GKKLKKIGQKIKNFFQKL]
